# Read-outs that look alike come from different tables or passages of the source.
# What was measured:
# [1] = format: in vivo, humans; settings: final model
# plasma protein = settings: cited from earlier work
# [2] = cited from earlier work
# OATP1B = settings: oral glyburide 1.25 mg, i.v. infusion of 600 mg rifampicin, over 24 h; cited from earlier work
clearance CL=VB×ke [1] [L/h],kBP (transfer blood to pancreas) [1] [h⁻¹],kBS (transfer blood to spleen) [1] [h⁻¹],kPB (transfer pancreas to blood) [1] [h⁻¹],kSB (transfer spleen to blood) [1] [h⁻¹],kL1B (exchange rate liver to blood) ([1]; without rifampicin) [h⁻^1],Structure (SMILES),binding to plasma protein (plasma protein) [%],volume of distribution outside central compartment (previous estimates) ([2]; 95% CI 1.3–3.2 L derived from reported estimates) [L],central volume of distribution ([2]; Rydberg et al.) [L],elimination rate ([2]; Rydberg et al.) [h⁻^1],"central volume of distribution ([2]; traditional PK modeling, blood samples) [L]",increase of plasma AUC vs baseline (OATP1B) [%]
2.84,5.9,5.9,138,131,20,COc1ccc(Cl)cc1C(=O)NCCc1ccc(S(=O)(=O)NC(=O)NC2CCCCC2)cc1 [[^11C]glyburide],> 99,–,–,–,–,–
–,–,–,–,–,–,COc1ccc(Cl)cc1C(=O)NCCc1ccc(S(=O)(=O)NC(=O)NC2CCCCC2)cc1 [glyburide],–,2,3.63,1.59,3.8,125 ± 51.5

# — paper PMC12618397 (Clinical Pharmacokinetics, 2025)
